Assay results published in PMC11363844 (Materials Today Bio, 2024).

System: E. coli ATCC 25922
Test: Resistance development assay
Assay type: cell-based

Question: For CNC(C)C1CCC(N)C(OC2C(N)CC(N)C(OC3OCC(C)(O)C(NC)C3O)C2O)O1 (centres unmarked) [gentamicin], which “day on which resistance was demonstrated” value (sequential culturing over 25 days) is on record?
Answer: fifth

Question: And the “fold increase of MIC value” (sequential culturing, by the 23rd day)?
Answer: 64 fold
